According to article PMC3472114 (Journal of molecular biology, 2012):

T1: galactosamine-6-sulfatase (GALNS) (Homo sapiens, UniProt P34059)
T1 sequence (P34059 27-522): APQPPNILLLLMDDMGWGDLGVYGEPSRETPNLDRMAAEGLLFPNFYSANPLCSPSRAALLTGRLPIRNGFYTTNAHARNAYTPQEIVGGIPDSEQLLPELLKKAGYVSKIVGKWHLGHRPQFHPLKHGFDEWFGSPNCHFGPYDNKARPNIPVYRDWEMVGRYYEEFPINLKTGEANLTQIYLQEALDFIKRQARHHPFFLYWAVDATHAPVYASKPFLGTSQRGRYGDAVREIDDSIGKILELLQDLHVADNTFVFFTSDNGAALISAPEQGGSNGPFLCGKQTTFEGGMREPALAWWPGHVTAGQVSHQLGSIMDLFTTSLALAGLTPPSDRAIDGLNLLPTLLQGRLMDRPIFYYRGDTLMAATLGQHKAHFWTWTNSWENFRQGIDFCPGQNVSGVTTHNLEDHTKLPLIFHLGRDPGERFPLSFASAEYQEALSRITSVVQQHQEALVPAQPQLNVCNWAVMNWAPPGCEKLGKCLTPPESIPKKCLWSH


Key:
[1] = molecular target: T1, galactosamine-6-sulfatase (GALNS); assay: biochemical
[2] = substrate: Cc1cc(=O)oc2cc(O[C@@H]3O[C@H](COS(=O)(=O)O)[C@H](O)[C@H](O)[C@H]3O)ccc12; type: biochemical, Homo sapiens; settings: Ca2+; Cys79 modified to formylglycine/dihydroxyalanine (DHA) active site

Ki [1] | Molecule | Km [2]
570 ± 150 µM | O=S(=O)(O)O [sulfate] | 
 | galactosamine-6-sulfatase (GALNS) (Homo sapiens) (protein) APQPPNILLLLMDDMGWGDLGVYGEPSRETPNLDRMAAEGLLFPNFYSANPLCSPSRAALLTGRLPIRNGFYTTNAHARNAYTPQEIVGGIPDSEQLLPELLKKAGYVSKIVGKWHLGHRPQFHPLKHGFDEWFGSPNCHFGPYDNKARPNIPVYRDWEMVGRYYEEFPINLKTGEANLTQIYLQEALDFIKRQARHHPFFLYWAVDATHAPVYASKPFLGTSQRGRYGDAVREIDDSIGKILELLQDLHVADNTFVFFTSDNGAALISAPEQGGSNGPFLCGKQTTFEGGMREPALAWWPGHVTAGQVSHQLGSIMDLFTTSLALAGLTPPSDRAIDGLNLLPTLLQGRLMDRPIFYYRGDTLMAATLGQHKAHFWTWTNSWENFRQGIDFCPGQNVSGVTTHNLEDHTKLPLIFHLGRDPGERFPLSFASAEYQEALSRITSVVQQHQEALVPAQPQLNVCNWAVMNWAPPGCEKLGKCLTPPESIPKKCLWSH | 13 ± 2 mM
